Earlier results in patent publication US9808427B2, “Swallowable N-acetylcysteine tablets” (ZAMBON S.P.A., priority 2013, dated 2017).

Experiments:
[1] = 1200 mg per day (2 tablets of 600 mg)

## CC(=O)N[C@@H](CS)C(=O)O [NAC, N-acetylcysteine]
After taking the drug
  time to achieve pharmacologically active concentrations in pulmonary tissue and bronchial secretions: approximately 3 hours
In vivo
  elimination of NAC and its metabolites: essentially via the kidneys
Oral administration, man
  absorption in the gastrointestinal tract: quickly and completely absorbed
[1]
  efficacy and safety in long-term treatment of COPD: effective and safe
